Test results reported in ChEMBL document CHEMBL3763030, “Structure-Activity Relationship of Azaindole-Based Glucokinase Activators” (J Med Chem, 2016).

Assay: Stability in C57BL/6J mouse microsomes
Format: ADME, Microsome

Row | Stability | SMILES
1 | 50% | C[S+]([O-])c1ccc(C(CC2CCCC2)c2cc3cccnc3[nH]2)cc1Cl (stereo in doubt; 16a)
2 | 85% | CS(=O)(=O)c1ccc([C@@H](C[C@H]2CCC(=O)C2)C(=O)Nc2cnccn2)cc1Cl [PIRAGLIATIN]
3 | 40% | C[S+]([O-])c1ccc(C(CC2CCCC2)c2cc3cccnc3[nH]2)cc1Cl (stereo in doubt; 16c)
